For test [1], the system named is E. coli, P. aeruginosa, P. cepacia, S. aureus, including MRSA, S. epidermidis, and C. albicans. Format: cell-based. The source says:
By “antimicrobial” activity is meant the ability to inhibit the growth of at least one microbial organism selected from the group consisting E. coli, P. aeruginosa, S. aureus and C. albicans, as confirmed by optical density measurement (“OD”).
By “inhibition of growth” is meant reduction or absence of an increase greater than 5% in OD, a dimensionless measure of turbidity that is proportional to the amount of microbial cells present in a sample. For illustrative purposes, a OAB according to the present invention is added to a culture plate on which E. coli is present at a final concentration of about 5×10^3 cfu/ml. The plate is then incubated at about 37° C. for about 24 hours at which time the E. coli is resuspended by shaking, and OD is measured at about 600 nm. Thus, a reduction or absence of an increase greater than 5% in OD confirms the antimicrobial nature of the OAB with respect to E. coli.
Minimum inhibitory concentration (“MIC”) is a method well-known to those of skill in the art for expressing antimicrobial activity. A compound to be tested is serially diluted into growth medium, inoculated with culture and then incubated. The MIC is the lowest dilution of compound that inhibits or prevents growth of the target microorganism.
A further aspect of the present invention is directed to oligomeric acylated biosurfactants having a CMC of less than about 100 ppm in an aqueous environment of MEM Solution that reduces the surface tension of the MEM Solution to less than about […] where the OAB consists essentially of two to nine amino acid residues, at least one of which is charged, and has a MIC of less than 100 ppm for at least two of the following microorganisms: E. coli, P. aeruginosa, P. cepacia, S. aureus, including MRSA, S. epidermidis, and C. albicans. OABs meeting this criterion are selected from the group consisting of: Myr-GR-amide (P300); Myr-KK-amide (P315); Pal-HR-amide (P320); Myr-KK-acid (P347); SEQ ID NO 79 (P367); Myr-GHR-amide (P245); Pal-GHR-amide (P250); Myr-GRK-amide (P303); Pal-G-H—[R]^D-amide (P366); SEQ ID NO 84 (368); SEQ ID NO 58 (P370); SEQ ID NO 59 (P360); SEQ ID NO 60 (P373); SEQ ID NO 61 (P376); SEQ ID NO 62 (P369); SEQ ID NO 63 (P379); SEQ ID NO 64 (P381); SEQ ID NO 65 (P416); SEQ ID NO 66 (P383); and SEQ ID NO 67 (P289).

A further test relates to fibroblast proliferation. Nature of the test: Cyquant Cell Proliferation Assay. Format: cell-based. On the procedure:
For purposes of the present invention, proliferation is assessed using the Cyquant® Cell Proliferation Assay from Molecular Probes. This assay measures increased production of cellular nucleic acids that, in turn, results in increased binding of fluorescent dye.

The next test relates to P. cepacia. Nature of the test: Minimum inhibitory concentration, P. cepacia. Format: cell-based, Pseudomonas cepacia. The source says: By “antimicrobial” activity is meant the ability to inhibit the growth of at least one microbial organism selected from the group consisting E. coli, P. aeruginosa, S. aureus and C. albicans, as confirmed by optical density measurement (“OD”). By “inhibition of growth” is meant reduction or absence of an increase greater than 5% in OD, a dimensionless measure of turbidity that is proportional to the amount of microbial cells present in a sample. For illustrative purposes, a OAB according to the present invention is added to a culture plate on which E. coli is present at a final concentration of about 5×10^3 cfu/ml. The plate is then incubated at about 37° C. for about 24 hours at which time the E. coli is resuspended by shaking, and OD is measured at about 600 nm. Thus, a reduction or absence of an increase greater than 5% in OD confirms the antimicrobial nature of the OAB with respect to E. coli. Minimum inhibitory concentration (“MIC”) is a method well-known to those of skill in the art for expressing antimicrobial activity. A compound to be tested is serially diluted into growth medium, inoculated with culture and then incubated. The MIC is the lowest dilution of compound that inhibits or prevents growth of the target microorganism.

Non-standard residues stand in square brackets, D forms with d. Residues, ends and D or L forms follow the SMILES beside them. *: point of attachment. Myristoyl = CCCCCCCCCCCCCC(=O)* A value given as a limit tells only on which side of the number the result lay.

With `CCCCCCCCCCCCCC(=O)NCC(=O)N[C@@H](Cc1c[nH]cn1)C(=O)N[C@@H](CCCNC(=N)N)C(N)=O` [P245, Myr-GHR-amide] (Myristoyl-Gly-His-Arg-NH2), the “MIC for at least two of the listed microorganisms” value in test [1] is given as “less than 100 ppm”.
For `CCCCCCCCCCCCCC(=O)N[C@@H](CC(C)C)C(=O)N[C@@H](CCCCN)C(=O)N[C@@H](CCCCN)C(=O)N[C@@H](C)C(=O)N[C@@H](CC(C)C)C(=O)N[C@@H](CCCCN)C(N)=O` [P296, Myr-LKKALK-amide] (Myristoyl-LKKALK-NH2), the “increase fibroblast proliferation (qualitative)” value with fibroblast proliferation is on record as “increase fibroblast proliferation”. Also, the “MIC(P. cepacia)” value with P. cepacia is listed as at most 100 ppm.
The like results for `CCCCCCCCCCCCCC(=O)N[C@@H](C)C(=O)N[C@@H](Cc1c[nH]cn1)C(=O)N[C@@H](CCCNC(=N)N)C(N)=O` [P322, Myr-AHR-amide] (Myristoyl-Ala-His-Arg-NH2) were, in that order, “increase fibroblast proliferation” and at most 100 ppm.
The like results for `CCCCCCCCCCCCCC(=O)N[C@@H](CCCNC(=N)N)C(=O)N[C@@H](CCCNC(=N)N)C(=O)N[C@@H](CCCNC(=N)N)C(N)=O` [P342, Myr-RRR-amide] (Myristoyl-Arg-Arg-Arg-NH2) were, in that order, “increase fibroblast proliferation” and at most 100 ppm.
Consider `CCCCCCCCCCCCCC(=O)N[C@@H](CCCCN)C(=O)N[C@@H](CCCCN)C(=O)N[C@@H](CCCCN)C(=O)O` [P348, Myr-KKK-acid], for which the “increase fibroblast proliferation (qualitative)” value in the test on fibroblast proliferation is listed as “increase fibroblast proliferation”. Further, the “MIC(P. cepacia)” value in the test on P. cepacia is on record as at most 100 ppm.
The like results for `CCCCCCCCCCCCCC(=O)N[C@@H](CCCCN)C(=O)N[C@@H](CCCCN)C(=O)N[C@@H](C)C(=O)N[C@@H](CC(C)C)C(=O)N[C@@H](CCCCN)C(=O)O` [P349, Myr-KKALK-acid] (Myristoyl-KKALK-OH) were, in that order, “increase fibroblast proliferation” and at most 100 ppm.
`CCCCCCCCCCCCCC(=O)N[C@@H](CCCCN)C(=O)N[C@@H](CC(C)C)C(=O)N[C@@H](C)C(=O)N[C@@H](CCCCN)C(=O)N[C@@H](CCCCN)C(=O)O` [P351, Myr-KLAKK-acid] (Myristoyl-KLAKK-OH): in the test with fibroblast proliferation, the “increase fibroblast proliferation (qualitative)” value is on record as “increase fibroblast proliferation”. In addition, the “MIC(P. cepacia)” value against P. cepacia is reported as at most 100 ppm.
Turning to `CCCCCCCCCCCCCC(=O)N[C@@H](CCCCN)C(=O)N[C@@H](CCCCN)C(=O)N[C@@H](C)C(=O)N[C@@H](CC(C)C)C(=O)O` [P362, Myr-KKAL-acid] (Myristoyl-KKAL-OH), in the test with fibroblast proliferation, the “increase fibroblast proliferation (qualitative)” value is given as “increase fibroblast proliferation”. Moreover, in the test on P. cepacia, the “MIC(P. cepacia)” value was at most 100 ppm.
With `CCCCCCCCCCCCCC(=O)N[C@@H](CC(C)C)C(=O)N[C@@H](C)C(=O)N[C@@H](CCCCN)C(=O)N[C@@H](CCCCN)C(=O)O` [P363, Myr-LAKK-acid] (Myristoyl-LAKK-OH), the “increase fibroblast proliferation (qualitative)” value in the test on fibroblast proliferation is listed as “increase fibroblast proliferation”. In the test with P. cepacia, the “MIC(P. cepacia)” value is listed as at most 100 ppm.
Consider `CCCCCCCCCCCCCC(=O)N[C@H](C(=O)N[C@@H](C)C(=O)N[C@@H](CCCCN)C(=O)N[C@@H](CCCCN)C(N)=O)[C@@H](C)CC` [P371, Myr-IAKK-amide] (Myristoyl-IAKK-NH2), for which the “increase fibroblast proliferation (qualitative)” value with fibroblast proliferation is given as “increase fibroblast proliferation”. In the test on P. cepacia, the “MIC(P. cepacia)” value is at most 100 ppm.
In the case of `CCCCCCCCCCCCCC(=O)N[C@@H](CC(C)C)C(=O)N[C@@H](CO)C(=O)N[C@@H](CCCCN)C(=O)N[C@@H](CCCCN)C(N)=O` [P372, Myr-LSKK-amide] (Myristoyl-LSKK-NH2), in the test with fibroblast proliferation, the “increase fibroblast proliferation (qualitative)” value was “increase fibroblast proliferation”. Further, the “MIC(P. cepacia)” value in the test with P. cepacia is reported as at most 100 ppm.
Consider `CCCCCCCCCCCCCC(=O)N[C@@H](CCCCN)C(=O)N[C@@H](CCCCN)C(=O)NCC(=O)N[C@@H](CC(C)C)C(=O)N[C@@H](CCCCN)C(N)=O` [P374, Myr-KKGLK-amide] (Myristoyl-KKGLK-NH2), for which the “increase fibroblast proliferation (qualitative)” value with fibroblast proliferation is “increase fibroblast proliferation”. In addition, the “MIC(P. cepacia)” value against P. cepacia was at most 100 ppm.
The like results for `CCCCCCCCCCCCCC(=O)N[C@@H](CCCCN)C(=O)N[C@@H](CCCCN)C(=O)NCC(=O)N[C@H](C(=O)N[C@H](CCCCN)C(N)=O)[C@@H](C)CC` [P390, Myr-KKG1-[K]^D-amide] (Myristoyl-KKGI[dK]-NH2) were, in that order, “increase fibroblast proliferation” and at most 100 ppm.
The like results for `CCCCCCCCCCCCCC(=O)N[C@@H](CCCCN)C(=O)N[C@@H](CCCCN)C(=O)NCC(=O)N[C@@H](CC(C)C)C(=O)N[C@H](CCCCN)C(N)=O` [P394, Myr-KKGL-[K]^D-amide] (Myristoyl-KKGL[dK]-NH2) were, in that order, “increase fibroblast proliferation” and at most 100 ppm.
The like results for `CCCCCCCCCCCCCC(=O)N[C@@H](CCCCN)C(=O)N[C@@H](CCCCN)C(=O)N[C@@H](CO)C(=O)N[C@@H](CC(C)C)C(=O)N[C@H](CCCCN)C(N)=O` [P395, Myr-KKSL-[K]^D-amide] (Myristoyl-KKSL[dK]-NH2) were, in that order, “increase fibroblast proliferation” and at most 100 ppm.
For `CCCCCCCCCCCCCC(=O)N[C@@H](CCCCN)C(=O)N[C@@H](CC(C)C)C(=O)N[C@@H](C)C(=O)N[C@@H](CCCCN)C(=O)N[C@@H](CCCCN)C(=O)N[C@H](CC(C)C)C(N)=O` [P396, Myr-KLAKK-[L]^D-amide] (Myristoyl-KLAKK[dL]-NH2), the “increase fibroblast proliferation (qualitative)” value in the test on fibroblast proliferation is given as “increase fibroblast proliferation”. In addition, in the test with P. cepacia, the “MIC(P. cepacia)” value is at most 100 ppm.
On to `CCCCCCCCCCCCCC(=O)NCC(=O)NCC(=O)N[C@@H](CCCCN)C(=O)N[C@@H](CCCNC(=N)N)C(N)=O` [P399, Myr-GGKR-amide] (Myristoyl-GGKR-NH2), for which, in the test with fibroblast proliferation, the “increase fibroblast proliferation (qualitative)” value is on record as “increase fibroblast proliferation”. The “MIC(P. cepacia)” value against P. cepacia is recorded as at most 100 ppm.
The like results for `CCCCCCCCCCCCCC(=O)N[C@@H](C)C(=O)N[C@@H](C)C(=O)N[C@@H](CCCCN)C(=O)N[C@@H](CCCNC(=N)N)C(N)=O` [P400, Myr-AAKR-amide] (Myristoyl-AAKR-NH2) were, in that order, “increase fibroblast proliferation” and at most 100 ppm.
Take `CCCCCCCCCCCCCC(=O)N[C@@H](C)C(=O)N[C@@H](CCCCN)C(=O)N[C@@H](CCCCN)C(=O)NCC(=O)N[C@@H](CC(C)C)C(=O)N[C@H](CCCCN)C(N)=O` [P402, Myr-AKKGL-[K]^D-amide] (Myristoyl-AKKGL[dK]-NH2): the “increase fibroblast proliferation (qualitative)” value with fibroblast proliferation is “increase fibroblast proliferation”. Further, the “MIC(P. cepacia)” value with P. cepacia was at most 100 ppm.
The like results for `CCCCCCCCCCCCCC(=O)NCC(=O)N[C@@H](CCCCN)C(=O)N[C@@H](CCCCN)C(=O)N[C@@H](C)C(=O)N[C@@H](CC(C)C)C(=O)N[C@H](CCCCN)C(N)=O` [P404, Myr-GKKAL-[K]^D-amide] (Myristoyl-GKKAL[dK]-NH2) were, in that order, “increase fibroblast proliferation” and at most 100 ppm.
As for `CCCCCCCCCCCCCC(=O)N[C@@H](CO)C(=O)N[C@@H](CCCCN)C(=O)N[C@@H](CCCCN)C(=O)N[C@@H](C)C(=O)N[C@@H](CC(C)C)C(=O)N[C@H](CCCCN)C(N)=O` [P408, Myr-SKKAL-[K]^D-amide] (Myristoyl-SKKAL[dK]-NH2), the “increase fibroblast proliferation (qualitative)” value in the test on fibroblast proliferation is “increase fibroblast proliferation”. Besides, the “MIC(P. cepacia)” value against P. cepacia is at most 100 ppm.

These data come from patent US8431523B2, “Oligomeric biosurfactants in dermatocosmetic compositions” (priority 2006, dated 2013).
